Earlier results as cited in patent US8338628B2, “Method of synthesizing alkylated bile acid derivatives” (City of Hope, priority 2007, dated 2012).

Key:
[1] = background statement
[2] = tested on: FXR; details: in vivo; recent studies
[3] = target: T1, farnesoid X receptor (FXR) (Homo sapiens, UniProt Q96RI1); details: background statement
T1 sequence (Q96RI1 1-486): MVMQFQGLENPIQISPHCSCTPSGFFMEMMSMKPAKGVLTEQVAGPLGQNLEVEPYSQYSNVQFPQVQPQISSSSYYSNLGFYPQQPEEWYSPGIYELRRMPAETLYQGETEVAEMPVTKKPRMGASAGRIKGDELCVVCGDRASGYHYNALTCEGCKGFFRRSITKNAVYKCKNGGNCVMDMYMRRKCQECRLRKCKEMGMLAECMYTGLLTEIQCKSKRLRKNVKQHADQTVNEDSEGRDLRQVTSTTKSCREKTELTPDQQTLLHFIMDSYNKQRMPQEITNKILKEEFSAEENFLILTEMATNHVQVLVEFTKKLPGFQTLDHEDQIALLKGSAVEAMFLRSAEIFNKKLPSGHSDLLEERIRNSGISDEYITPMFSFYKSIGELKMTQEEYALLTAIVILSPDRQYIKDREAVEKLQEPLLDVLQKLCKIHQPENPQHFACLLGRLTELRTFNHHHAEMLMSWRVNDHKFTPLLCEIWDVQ

FXR activation (in words) [3]	Compound	pharmacokinetic properties (in words) [1]	HDL-cholesterol [2]	plasma triglycerides [2]
–	CC[C@H]1[C@@H](O)[C@@H]2[C@H](CC[C@]3(C)[C@@H]([C@H](C)CCC(=O)O)CC[C@@H]23)[C@@]2(C)CC[C@@H](O)C[C@@H]12 [Compound 6-ECDCA, 3α,7α-Dihydroxy-6α-ethyl-5β-cholan-24-oic acid]	improved pharmacokinetic properties relative to GW4064	–	–
–	CC(C)c1onc(-c2c(Cl)cccc2Cl)c1COc1ccc(/C=C/c2cccc(C(=O)O)c2)c(Cl)c1 [GW4064]	very poor pharmacokinetic properties	increases HDL-cholesterol	reduces plasma triglycerides
activate FXR	C[C@H](CCC(=O)O)[C@H]1CC[C@H]2[C@@H]3[C@H](O)C[C@@H]4C[C@H](O)CC[C@]4(C)[C@H]3C[C@H](O)[C@]12C [cholic acid]	–	–	–
